Test results taken from patent EP3807270B1, “NOVEL HETEROARYL HETEROCYCLYL COMPOUNDS FOR THE TREATMENT OF AUTOIMMUNE DISEASE” (F. Hoffmann-La Roche AG, priority 2018, dated 2019).

Key:
CYP2D6 = biological target: T1, CYP2D6 (Homo sapiens, UniProt P10635); experiment: CYP inhibition assay in human liver microsome; assay type: in vitro ADME; conditions: human liver microsomes, probe dextromethorphan, 10µM test compound, dextromethorphan substrate, <0: not or weak inhibitor, read-out: CYP 2D6 inhibition %@10µM
T1 construct: tissue BD-Gentest 452117; host or cells: human liver microsomes
Protocol: This is a high throughput screening assay used for assessment of reversible inhibition of CYP2D6 activity of test compounds in human liver microsome (HLM) in early discovery stage. Table 4. Chemicals and materials used in the CYP inhibition assay
10 mM DMSO stock solutions of test compounds were diluted in DMSO to generate 2 mM intermediate stock solution. 250 nL of intermediate stock solution were transferred in duplicate into 3 separate 384 well microtitre plates (assay-ready plates). A mixture of HLM and each substrate was made up. 45 µL of HLM substrate mix was then transferred to each well of an assay ready plate and mixed. The negative (solvent) and positive control (standard inhibitor for CYP 2D6) were included in each assay ready plate. The assay ready plate was warmed to 37 °C in an incubator over 10 minutes. 5 µL pre-warmed NADPH regenerating system was added to each incubation well to start the reaction. Final incubation volume was 50 µL. The assay plate then was placed back in the 37 °C incubator. After 10-minute incubation, incubates were quenched by addition of 50 µL 100% acetonitrile containing internal standards (20 ng/mL D3-Dextrorphan). The supernatants were collected for RapidFire/MS/MS analysis.
RapidFire online solid phase extraction/sample injection system (Agilent) coupled with API4000 triple quadrupole mass spectrometer (AB Sciex) were used for sample analysis. The mobile phase composed of acetonitrile and water supplemented with 0.1% formic acid. A C4 solid phase extraction cartridge is used for sample separation. MS detection is achieved in positive ion MRM mode.
Peak areas for substrate, metabolite and internal standard are determined using the RapidFire integrator software (version 3.6.12009.12296). Peak area ratios (PAR) of metabolite and internal standard (stable-labelled metabolite) are then calculated. The measurement window for each experiment is then defined: • PAR (0% activity)= average PAR for all incubations containing concentrated inhibitor; • Par (100% activity)= average PAR for all incubations containing no inhibitor (DMSO controls); • % Activity (test inhibitor) • =[PAR(test inhibitor)-PAR(0% activity)]/[PAR(100% activity)-PAR(0% activity)]; • % Inhibition (test inhibitor)=100-% Activity (test inhibitor).

hTLR7 = biological target: T2, hTLR7 (Homo sapiens, UniProt Q9NYK1); experiment: HEK293-Blue-hTLR-7 cells assay (SEAP reporter, R848 stimulation); assay type: cell-based; set-up: host or cells: HEK293 (HEK-Blue); conditions: HEK293-Blue-hTLR7 cells, R848, 20 hrs; read-out: HEK/hTLR7 IC50
T2 sequence (Q9NYK1 27-1049): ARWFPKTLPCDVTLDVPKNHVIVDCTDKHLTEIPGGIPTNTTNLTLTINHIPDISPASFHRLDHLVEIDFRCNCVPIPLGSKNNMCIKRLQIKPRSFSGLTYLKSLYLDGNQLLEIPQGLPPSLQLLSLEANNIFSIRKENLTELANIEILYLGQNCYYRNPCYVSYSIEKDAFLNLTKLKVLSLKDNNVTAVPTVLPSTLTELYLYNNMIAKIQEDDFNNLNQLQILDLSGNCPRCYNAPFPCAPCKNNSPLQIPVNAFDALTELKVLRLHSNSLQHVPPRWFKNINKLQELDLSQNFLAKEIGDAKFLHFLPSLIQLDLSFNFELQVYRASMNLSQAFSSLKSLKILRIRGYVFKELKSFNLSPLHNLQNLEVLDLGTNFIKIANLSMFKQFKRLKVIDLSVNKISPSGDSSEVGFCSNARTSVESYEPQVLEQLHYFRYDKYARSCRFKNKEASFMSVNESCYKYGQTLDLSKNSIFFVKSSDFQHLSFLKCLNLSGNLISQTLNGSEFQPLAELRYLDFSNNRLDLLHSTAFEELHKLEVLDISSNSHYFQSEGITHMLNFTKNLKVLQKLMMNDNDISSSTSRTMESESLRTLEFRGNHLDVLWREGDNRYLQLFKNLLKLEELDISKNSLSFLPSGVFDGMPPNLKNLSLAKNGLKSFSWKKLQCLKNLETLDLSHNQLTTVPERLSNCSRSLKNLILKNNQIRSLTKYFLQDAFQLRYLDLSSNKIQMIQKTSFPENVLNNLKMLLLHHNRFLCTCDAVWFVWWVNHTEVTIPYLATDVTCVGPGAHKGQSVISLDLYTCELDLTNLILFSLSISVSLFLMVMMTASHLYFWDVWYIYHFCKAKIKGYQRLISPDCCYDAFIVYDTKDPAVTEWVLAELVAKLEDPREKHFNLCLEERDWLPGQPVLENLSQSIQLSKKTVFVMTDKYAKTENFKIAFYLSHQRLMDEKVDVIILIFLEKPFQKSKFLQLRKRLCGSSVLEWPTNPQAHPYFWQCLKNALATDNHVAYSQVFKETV
Excerpt: A stable HEK293-Blue-hTLR-7 cell line was purchased from InvivoGen (Cat.#: hkb-htlr7, San Diego, California, USA). These cells were originally designed for studying the stimulation of human TLR7 by monitoring the activation of NF-κB. A SEAP (secreted embryonic alkaline phosphatase) reporter gene was placed under the control of the IFN-β minimal promoter fused to five NF-κB and AP-1-binding sites. The SEAP was induced by activating NF-xB and AP-1 via stimulating HEK-Blue hTT,R7 cells with TLR7 ligands. Therefore, the reporter expression was declined by TLR7 antagonist under the stimulation of a ligand, such as R848 (Resiquimod), for incubation of 20 hrs. The cell culture supernatant SEAP reporter activity was determined using QUANTI-Blue™ kit (Cat.#: rep-qb1, Invivogen, San Diego, Ca, USA) at a wavelength of 640 nm, a detection medium that turns purple or blue in the presence of alkaline phosphatase.
HEK293-Blue-hTLR7 cells were incubated at a density of 250,000-450,000 cells/mL in a volume of 170 µL in a 96-well plate in Dulbecco's Modified Eagle's medium (DMEM) containing 4.5 g/L glucose, 50 U/mL penicillin, […], […], 2 mM L-glutamine, 10% (v/v) heat-inactivated fetal bovine serum with addition of 20 µL test compound in a serial dilution in the presence of final DMSO at 1% and 10 µL of 20uM R848 in above DMEM, perform incubation under 37 °C in a CO2 incubator for 20 hrs. Then 20 µL of the supernatant from each well was incubated with 180 µL Quanti-blue substrate solution at 37 °C for 2 hrs and the absorbance was read at 620-655 nm using a spectrophotometer. The signaling pathway that TLR7 activation leads to downstream NF-xB activation has been widely accepted, and therefore similar reporter assay was modified for evaluating TLR7 antagonist.

T1 sequence (P10635 whole entry): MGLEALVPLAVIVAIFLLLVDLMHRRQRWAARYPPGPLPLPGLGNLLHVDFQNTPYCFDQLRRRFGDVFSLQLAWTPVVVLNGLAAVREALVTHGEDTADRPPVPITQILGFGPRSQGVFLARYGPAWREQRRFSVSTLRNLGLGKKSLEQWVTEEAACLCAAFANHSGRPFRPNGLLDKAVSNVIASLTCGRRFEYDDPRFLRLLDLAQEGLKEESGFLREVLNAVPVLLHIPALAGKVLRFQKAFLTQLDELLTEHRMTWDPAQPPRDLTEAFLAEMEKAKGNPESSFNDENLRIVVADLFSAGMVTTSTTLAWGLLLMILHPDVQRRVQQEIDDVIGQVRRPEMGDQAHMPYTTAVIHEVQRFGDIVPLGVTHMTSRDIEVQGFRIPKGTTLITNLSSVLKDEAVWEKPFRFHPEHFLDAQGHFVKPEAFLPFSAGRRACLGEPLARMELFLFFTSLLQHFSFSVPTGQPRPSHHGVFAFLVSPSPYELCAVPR

| Compound | inhibition at 10 min, 10 µM (CYP2D6) | IC50 (hTLR7) |
| --- | --- | --- |
| C[C@@H]1CN(c2ccc(C#N)c3ncccc23)C[C@H](CN2CCN(c3ncc4c(n3)CNC4)CC2)O1 [Example 11, 5-[(2S,6R)-2-[[4-(6,7-dihydro-5Hpyrrolo[3,4-d]pyrimidin-2-yl)piperazin-1-yl]methyl]-6-methyl-morpholin-4-yl]quinoline-8-carbonitrile] | 19% | 11 nM |
| C[C@@H]1CN(c2ccc(C#N)c3ncccc23)C[C@H](CN2CCN(c3ccc4c(n3)CCNC4)CC2)O1 [Example 14, 5-[(2R,6S)-2-methyl-6-[[4-(5,6,7,8-tetrahydro-1,6-naphthyridin-2-yl)piperazin-1-yl]methyl]morpholin-4-yl]quinoline-8-carbonitrile] | -6% | 11 nM |
| C[C@@H]1CN(c2ccc(C#N)c3ncccc23)C[C@H](CN2CCN(c3ccc4c(c3)CN(CCO)C4)CC2)O1 [Example 16, 5-[(2S,6R)-2-[[4-[2-(2-hydroxyethyl)isoindolin-5-yl]piperazin-1-yl]methyl]-6-methyl-morpholin-4-yl]quinoline-8-carbonitrile] | 2.5% | 20 nM |
| C[C@@H]1CN(c2ccc(C#N)c3ncccc23)C[C@H](CN2CCN(c3cnc4c(n3)CCNC4)CC2)O1 [Example 17, 5-[(2R,6S)-2-methyl-6-[[4-(5,6,7,8-tetrahydropyrido[3,4-b]pyrazin-2-yl)piperazin-1-yl]methyl]morpholin-4-yl]quinoline-8-carbonitrile] | 4.5% | 11 nM |
| C[C@@H]1CN(c2ccc(C#N)c3ncccc23)C[C@H](CN2CCN(c3cc4c(cn3)CNC4)CC2)O1 [Example 18, 5-[(2S,6R)-2-[[4-(2,3-dihydro-1H-pyrrolo[3,4-c]pyridin-6-yl)piperazin-1-yl]methyl]-6-methyl-morpholin-4-yl] quinoline-8-carbonitrile] | 13% | 9 nM |
| C[C@@H]1CN(c2ccc(C#N)c3ncccc23)C[C@H](CN2CCN(c3cc4c(cn3)CNCC4)CC2)O1 [Example 19, 5-[(2R,6S)-2-methyl-6-[[4-(5,6,7,8-tetrahydro-2,7-naphthyridin-3-yl)piperazin-1-yl]methyl]morpholin-4-yl]quinoline-8-carbonitrile] | 7.5% | 9 nM |
| C[C@@H]1CN(c2ccc(C#N)c3ncccc23)C[C@H](CN2CCN(c3cc4c(cn3)CCNC4)CC2)O1 [Example 20, 5-[(2R,6S)-2-methyl-6-[[4-(5,6,7,8-tetrahydro-2,6-naphthyridin-3-yl)piperazin-1-yl]methyl]morpholin-4-yl]quinoline-8-carbonitrile] | -5.5% | 8 nM |
| C[C@@H]1CN(c2ccc(C#N)c3ncccc23)C[C@H](CN2CCN(c3cnc4c(c3)CNCC4)CC2)O1 [Example 21, 5-[(2R,6S)-2-methyl-6-[[4-(5,6,7,8-tetrahydro-1,6-naphthyridin-3-yl)piperazin-1-yl]methyl]morpholin-4-yl]quinoline-8-carbonitrile] | -4.5% | 11 nM |
| C[C@@H]1CN(c2ccc(C#N)c3ncccc23)C[C@H](CN2CCN(c3ccc4c(c3)C(O)CNC4)CC2)O1 (stereo partly drawn) [Example 22, 5-[(2S,6R)-2-[[4-(4-hydroxy-1,2,3,4-tetrahydroisoquinolin-6-yl)piperazin-1-yl]methyl]-6-methyl-morpholin-4-yl]quinoline-8-carbonitrile] | 6% | 39 nM |
| C[C@@H]1CN(c2ccc(C#N)c3ncccc23)C[C@H](CN2CCN(c3cnc4c(c3)CCNC4)CC2)O1 [Example 23, 5-[(2R,6S)-2-methyl-6-[[4-(5,6,7,8-tetrahydro-1,7-naphthyridin-3-yl)piperazin-1-yl]methyl]morpholin-4-yl]quinoline-8-carbonitrile] | 3.5% | 59 nM |
| C[C@@H]1CN(c2ccc(C#N)c3ncccc23)C[C@H](CN2CCN(c3ccc4c(c3)CCNC4CO)CC2)O1 (stereo partly drawn) [Example 24, 5-[(2S,6R)-2-[[4-[1-(hydroxymethyl)-1,2,3,4-tetrahydroisoquinolin-6-yl]piperazin-1-yl]methyl]-6-methyl-morpholin-4-yl]quinoline-8-carbonitrile] | -9.5% | 32 nM |
| C[C@@H]1CN(c2ccc(C#N)c3nccnc23)C[C@H](CN2CCN(c3cnc4c(c3)CNC4)CC2)O1 [Example 25, 8-[(2S,6R)-2-[[4-(6,7-dihydro-5H-pyrrolo[3,4-b]pyridin-3-yl)piperazin-1-yl]methyl]-6-methyl-morpholin-4-yl] quinoxaline-5-carbonitrile] | -8% | 19 nM |
| C[C@@H]1CN(c2ccc(C#N)c3ncccc23)C[C@H](CN2CCN(c3ncc4c(n3)CCNC4)CC2)O1 [Example 29, 5-[(2R,6S)-2-methyl-6-[[4-(5,6,7,8-tetrahydropyrido[4,3-d]pyrimidin-2-yl)piperazin-1-yl]methyl]morpholin-4-yl]quinoline-8-carbonitrile] | 16.5% | 11 nM |
| C[C@@H]1CN(c2ccc(C#N)c3ncccc23)C[C@H](CN2CCN(c3ccc4c(n3)CNC4)CC2)O1 [Example 30, 5-[(2S,6R)-2-[[4-(6,7-dihydro-5H-pyrrolo[3,4-b]pyridin-2-yl)piperazin-1-yl]methyl]-6-methyl-morpholin-4-yl] quinoline-8-carbonitrile] | 17.5% | 12 nM |
